Experiments:
[1] = Brain penetration and plasma/brain pharmacokinetics in combination with Temodar or Lynparza
Procedure: A similar analysis was performed with LMP744 and LMP400 in combination with Temodar and Lynparza.

SF-539 (CNS) = assay: NCI-60 cytotoxicity assay; type: cell-based; conditions: Homo sapiens; SF-539 CNS; 48 h, sulforhodamine B; read-out: Comparative Cytotoxicity GI50, CNS SF-539
Procedure: (§1) The antiproliferative activities of the indenoisquinoline compounds are determined in the NCI-60 cancer cell lines of the National Cancer Institute Developmental Therapeutics Program (NCI-DTP). […] Cancer cells are incubated with the test compounds at five concentrations ranging from 100 μM to 10 nM for 48 h. After the treated cancer cells are stained with sulforhodamine B dye, the percentage growth is plotted as a function of the common logarithm of the tested compound concentration. […] The approximate average of GI50 values across the entire panel of NCI-60 cancer cell lines for each compound is recorded as the MGM value.
(§2) NCI-60 Cytotoxicity Assay. Compounds were submitted to the National Cancer Institute Developmental Therapeutic Program to determine their growth-inhibitory potentials in NCI-60 cell lines. All compounds satisfied the pre-screening proceeded into the 5-dose cell viability assay, in which cells were treated for 48 h at 5 dosages ranging from 100 μM to 10 nM.

NCI-60 cancer cell lines = assay: NCI-60 cytotoxicity assay, MGM; type: cell-based; conditions: Homo sapiens; entire panel of NCI-60 cancer cell lines; read-out: MGM (approximate average of GI50 values across the NCI-60 panel)
Procedure: as §1, §2

SN12C (Renal) = assay: NCI-60 cytotoxicity assay; type: cell-based, human; conditions: Homo sapiens; SN12C renal; 48 h, sulforhodamine B; read-out: Comparative Cytotoxicity GI50, Renal SN12C
Procedure: as §1, §2

UACC-62 (Melanoma) = assay: NCI-60 cytotoxicity assay; type: cell-based, human; conditions: Homo sapiens; UACC-62 melanoma; 48 h, sulforhodamine B; read-out: Comparative Cytotoxicity GI50, Melanoma UACC-62
Procedure: as §1, §2

MCF7 (Breast) = assay: NCI-60 cytotoxicity assay; type: cell-based, human; conditions: Homo sapiens; MCF7 breast; 48 h, sulforhodamine B; read-out: Comparative Cytotoxicity GI50, Breast MCE7
Procedure: as §1, §2

HOP-62 (Lung) = assay: NCI-60 cytotoxicity assay; type: cell-based, human; conditions: Homo sapiens; HOP-62 lung; 48 h, sulforhodamine B; read-out: Comparative Cytotoxicity GI50, Lung HOP-62
Procedure: as §1, §2

DU-145 (Prostate) = assay: NCI-60 cytotoxicity assay; type: cell-based, human; conditions: Homo sapiens; DU-145 prostate; 48 h, sulforhodamine B; read-out: Comparative Cytotoxicity GI50, Prostate DU-145
Procedure: as §1, §2

OVCAR-3 (Ovarian) = assay: NCI-60 cytotoxicity assay; type: cell-based, human; conditions: Homo sapiens; OVCAR-3 ovarian; 48 h, sulforhodamine B; read-out: Comparative Cytotoxicity GI50, Ovarian OVCAR-3
Procedure: as §1, §2

HCT-116 (Colon) = assay: NCI-60 cytotoxicity assay; type: cell-based, human; conditions: Homo sapiens; HCT-116 colon; 48 h, sulforhodamine B; read-out: Comparative Cytotoxicity GI50, Colon HCT-116
Procedure: as §1, §2

Caco-2 cells = assay: Caco-2 permeability; type: in vitro ADME; conditions: for Efflux Ratio / Recovery (%)AP-BL / Recovery (%)BL-AP: Caco-2; for Papp (A→B) / Papp (B→A): Caco-2, 5 μM, 2 h
Procedure: Caco-2 Permeability Studies. The Caco-2 plate was removed from the incubator and washed twice with pre-warmed HBSS (10 mM HEPES, pH 7.4), and then incubated at 37° C. for 30 min. The stock solutions of controls compounds were diluted in DMSO to get 1 mM solutions and then diluted with HBSS (10 mM HEPES, pH 7.4) to get 5 μM working solutions. The stock solutions of the test compounds were diluted in DMSO to get 1 mM solutions and then diluted with HBSS (10 mM HEPES, pH 7.4) to get 5 μM working solutions. The final concentration of DMSO in the incubation system was 0.5%. To determine the rate of drug transport in the apical to basolateral direction, 75 μL of 5 μM working solutions of test compounds was added to the Transwell insert (apical compartment) and the wells in the receiver plate (basolateral compartment) were filled with 235 μL of HBSS (10 mM HEPES, pH 7.4). To determine the rate of drug transport in the basolateral to apical direction, 235 μL of 5 μM working solutions of test compounds were to the receiver plate wells (basolateral compartment) and then the Transwell inserts (apical compartment) were filled with 75 μL of HBSS (10 mM HEPES, pH 7.4). Time 0 samples were prepared by transferring 50 μL of 5 μM working solution to wells of the 96-deepwell plate, followed by the addition of 200 μL cold methanol containing appropriate internal standards (IS). The plates were incubated at 37° C. for 2 h. […] An aliquot of 100 μL of the supernatant was mixed with an appropriate volume of ultra-pure water before LC-MS/MS analysis. To determine the Lucifer Yellow leakage after 2 h transport period, stock solution of Lucifer yellow was prepared in ultra-pure water and diluted with HBSS (10 mM HEPES, pH 7.4) to reach the final concentration of 100 μM and then 100 μL of the Lucifer yellow solution was added to each Transwell insert (apical compartment), followed by filling the wells in the receiver plate (basolateral compartment) with 300 μL of HBSS (10 mM HEPES, pH 7.4). The plates were incubated at 37° C. for 30 minutes. Samples (80 μL) were removed directly from the apical and basolateral wells (using the basolateral access holes) and transferred to wells of new 96 wells plates.

[2] = Lynparza 100 mg/kg PO + LMP400 10 mg/kg IV, 0.5 h
[3] = Lynparza 100 mg/kg PO + LMP400 10 mg/kg IV, 1 h
[4] = Lynparza 100 mg/kg PO + LMP400 10 mg/kg IV, 2 h
[5] = Lynparza 100 mg/kg PO + LMP400 10 mg/kg IV, 4 h
[6] = Lynparza 100 mg/kg PO + LMP400 10 mg/kg IV, 8 h
[7] = Lynparza 100 mg/kg PO + LMP400 10 mg/kg IV, 24 h
[8] = Lynparza 100 mg/kg PO + LMP744 10 mg/kg IV, 0.25 h
[9] = Lynparza 100 mg/kg PO + LMP744 10 mg/kg IV, 0.5 h
[10] = Lynparza 100 mg/kg PO + LMP744 10 mg/kg IV, 1 h
[11] = Lynparza 100 mg/kg PO + LMP744 10 mg/kg IV, 2 h
[12] = Lynparza 100 mg/kg PO + LMP744 10 mg/kg IV, 4 h
[13] = Lynparza 100 mg/kg PO + LMP744 10 mg/kg IV, 8 h
[14] = Lynparza 100 mg/kg PO + LMP744 10 mg/kg IV, 24 h
[15] = Temador 125 mg/kg PO + LMP400 10 mg/kg IV, 1 h
[16] = Temador 125 mg/kg PO + LMP400 10 mg/kg IV, 2 h
[17] = Temador 125 mg/kg PO + LMP400 10 mg/kg IV, 4 h
[18] = Temador 125 mg/kg PO + LMP400 10 mg/kg IV, 8 h
[19] = Temador 125 mg/kg PO + LMP400 10 mg/kg IV, 24 h
[20] = Temador 125 mg/kg PO + LMP744 20 mg/kg IV, 0.25 h
[21] = Temador 125 mg/kg PO + LMP744 20 mg/kg IV, 0.5 h
[22] = Temador 125 mg/kg PO + LMP744 20 mg/kg IV, 1 h
[23] = Temador 125 mg/kg PO + LMP744 20 mg/kg IV, 2 h
[24] = Temador 125 mg/kg PO + LMP744 20 mg/kg IV, 4 h
[25] = Temador 125 mg/kg PO + LMP744 20 mg/kg IV, 8 h
[26] = Temador 125 mg/kg PO + LMP744 20 mg/kg IV, 24 h

O=C(c1cc(Cc2n[nH]c(=O)c3ccccc23)ccc1F)N1CCN(C(=O)C2CC2)CC1 [Lynparza]
Brain Conc ([1]; Lynparza 100 mg/kg PO + LMP400 10 mg/kg IV, 0.25 h): 0.0131 ± 0.00699 µM | Brain Conc [1, 2]: 0.03336 ± 0.01887 µM | Plasma Conc [1, 2]: 1.384 ± 0.929 µM | Brain Conc [1, 3]: 0.05003 ± 0.00979 µM | Plasma Conc [1, 3]: 2.644 ± 0.762 µM | Brain Conc [1, 4]: 0.03044 ± 0.01589 µM | Plasma Conc [1, 4]: 1.637 ± 1.051 µM | Brain Conc [1, 5]: 0.01839 ± 0.00859 µM | Plasma Conc [1, 5]: 0.755 ± 0.46 µM | Brain Conc [1, 6]: BLOQ | Plasma Conc [1, 6]: 0.166 ± 0.208 µM | Brain Conc [1, 7]: BLOQ | Plasma Conc [1, 7]: BLOQ | Brain Conc [1, 8]: BLOQ | Plasma Conc [1, 8]: 0.345 ± 0.101 µM | Brain Conc [1, 9]: 0.0121 ± 0.00053 µM | Brain/Plasma Conc Ratio [1, 9]: 0.02 | Plasma Conc [1, 9]: 0.555 ± 0.0934 µM | Brain Conc [1, 10]: 0.0141 ± 0.0073 µM | Brain/Plasma Conc Ratio [1, 10]: 0.01 | Plasma Conc [1, 10]: 0.961 ± 0.189 µM | Brain Conc [1, 11]: 0.0449 ± 0.02008 µM | Plasma Conc [1, 11]: 1.61 ± 0.968 µM | Brain Conc [1, 12]: 0.0254 ± 0.00652 µM | Plasma Conc [1, 12]: 1.11 ± 0.25 µM | Brain Conc [1, 13]: BLOQ | Plasma Conc [1, 13]: 0.314 ± 0.185 µM | Brain Conc [1, 14]: BLOQ | Plasma Conc [1, 14]: BLOQ | concentration at 0.25 h ([1]; mouse, plasma, oral, Plasma Conc, Lynparza 100 mg/kg PO + LMP400 10 mg/kg IV, 0.25 h): 0.506 ± 0.423 µM

COc1cc2c3c(n(CCCNCC4CC4)c(=O)c2cc1OC)-c1cc2c(cc1C3=O)OCO2 [A1]
GI50 (SF-539 (CNS)): 760 nM | GI50 (NCI-60 cancer cell lines): 1320 nM | GI50 (SN12C (Renal)): 1370 nM | GI50 (UACC-62 (Melanoma)): 2860 nM | GI50 (MCF7 (Breast)): 95 nM | GI50 (HOP-62 (Lung)): 350 nM | GI50 (DU-145 (Prostate)): 760 nM | GI50 (OVCAR-3 (Ovarian)): 1420 nM | GI50 (HCT-116 (Colon)): 1140 nM

COc1cc2c3c(n(CCCNC4CCCC4)c(=O)c2cc1OC)-c1cc2c(cc1C3=O)OCO2 [A3]
GI50 (SF-539 (CNS)): 1510 nM | GI50 (NCI-60 cancer cell lines): 2690 nM | GI50 (SN12C (Renal)): 1800 nM | GI50 (UACC-62 (Melanoma)): 13000 nM | GI50 (MCF7 (Breast)): 670 nM | GI50 (HOP-62 (Lung)): 2380 nM | GI50 (DU-145 (Prostate)): 1440 nM | GI50 (OVCAR-3 (Ovarian)): 1640 nM | GI50 (HCT-116 (Colon)): 1200 nM

Cn1nnc2c(C(N)=O)ncn2c1=O [Temadar]
Plasma Conc ([1]; Temador 125 mg/kg PO + LMP400 10 mg/kg IV, 0.25 h): 311.591 ± 40.73 µM | Brain Conc [1, 15]: 102.567 ± 16.241 µM | Brain/Plasma Conc Ratio [1, 15]: 0.50 | Brain/Plasma Conc Ratio [1, 16]: 0.56 | Plasma Conc [1, 16]: 80.639 ± 5.808 µM | Brain Conc [1, 17]: 4.739 ± 0.585 µM | Plasma Conc [1, 17]: 10.345 ± 0.724 µM | Brain Conc [1, 18]: 1.236 ± 0.654 µM | Brain/Plasma Conc Ratio [1, 18]: 0.38 | Plasma Conc [1, 18]: 3.295 ± 1.528 µM | Brain Conc [1, 19]: 0.122 ± 0.004 µM | Brain/Plasma Conc Ratio [1, 19]: 0.01 | Plasma Conc [1, 19]: 10.009 ± 5.943 µM | Brain Conc [1, 20]: 123.222 ± 49.748 µM | Brain/Plasma Conc Ratio [1, 20]: 0.33 | Plasma Conc [1, 20]: 376.314 ± 182.744 µM | Brain Conc [1, 21]: 83.539 ± 43.505 µM | Brain/Plasma Conc Ratio [1, 21]: 0.23 | Plasma Conc [1, 21]: 370.863 ± 119.965 µM | Brain/Plasma Conc Ratio [1, 22]: 0.46 | Plasma Conc [1, 22]: 357.779 ± 86.447 µM | Brain Conc [1, 23]: 96.544 ± 15.254 µM | Brain/Plasma Conc Ratio [1, 23]: 0.15 | Brain Conc [1, 24]: 12.75 ± 2.849 µM | Brain/Plasma Conc Ratio [1, 24]: 0.47 | Plasma Conc [1, 24]: 27.155 ± 4.732 µM | Brain Conc [1, 25]: 5.765 ± 3.855 µM | Brain/Plasma Conc Ratio [1, 25]: 0.57 | Plasma Conc [1, 25]: 10.048 ± 6.715 µM | Brain Conc [1, 26]: 0.914 ± 0.532 µM | Brain/Plasma Conc Ratio [1, 26]: 0.60 | concentration at 0.25 h ([1]; mouse, brain, oral, Brain Conc, Temador 125 mg/kg PO + LMP400 10 mg/kg IV, 0.25 h): 86.6 ± 10.4 µM | concentration at 0.5 h ([1]; mouse, brain, oral, Brain Conc, Temador 125 mg/kg PO + LMP400 10 mg/kg IV, 0.5 h): 47.4 ± 24.5 µM | concentration at 1 h ([1]; mouse, brain, oral, Brain Conc, Temador 125 mg/kg PO + LMP744 20 mg/kg IV, 1 h): 154 ± 38.8 µM | concentration at 0.5 h ([1]; mouse, plasma, oral, Plasma Conc, Temador 125 mg/kg PO + LMP400 10 mg/kg IV, 0.5 h): 389 ± 66 µM | concentration at 1 h ([1]; mouse, plasma, oral, Plasma Conc, Temador 125 mg/kg PO + LMP400 10 mg/kg IV, 1 h): 205 ± 27.3 µM | concentration at 2 h ([1]; mouse, plasma, oral, Plasma Conc, Temador 125 mg/kg PO + LMP744 20 mg/kg IV, 2 h): 552 ± 309 µM | concentration at 24 h ([1]; mouse, plasma, oral, Plasma Conc, Temador 125 mg/kg PO + LMP744 20 mg/kg IV, 24 h): 1.58 ± 0.509 µM

C[C@H]1O[C@@H](O[C@H]2[C@@H](O)C[C@H](O[C@H]3[C@@H](O)C[C@H](O[C@H]4CC[C@@]5(C)[C@H](CC[C@@H]6[C@@H]5C[C@@H](O)[C@]5(C)[C@@H](C7=CC(=O)OC7)CC[C@]65O)C4)O[C@@H]3C)O[C@@H]2C)C[C@H](O)[C@@H]1O [Digoxin]
Efflux Ratio (Caco-2 cells): 25.25 | Recovery (%)AP-BL (Caco-2 cells): 88.64% | Recovery (%)BL-AP (Caco-2 cells): 106.70% | Papp (A→B) (Caco-2 cells): 0.74 10^−6, cm/s | Papp (B→A) (Caco-2 cells): 18.71 10^−6, cm/s

COc1cc2nc(N3CCN(C(=O)c4ccco4)CC3)nc(N)c2cc1OC [Prazosin]
Efflux Ratio (Caco-2 cells): 3.39 | Recovery (%)AP-BL (Caco-2 cells): 79.64% | Recovery (%)BL-AP (Caco-2 cells): 94.99% | Papp (A→B) (Caco-2 cells): 9.28 10^−6, cm/s | Papp (B→A) (Caco-2 cells): 31.47 10^−6, cm/s

CC(C)NCC(O)COc1cccc2ccccc12 (centres unmarked) [Propranolol]
Efflux Ratio (Caco-2 cells): 0.70 | Recovery (%)AP-BL (Caco-2 cells): 80.74% | Recovery (%)BL-AP (Caco-2 cells): 92.73% | Papp (A→B) (Caco-2 cells): 25.34 10^−6, cm/s | Papp (B→A) (Caco-2 cells): 17.63 10^−6, cm/s

— patent US20240287089A1, “Preparation and Uses of 7-Azaindenoisoquinolines” (Purdue Research Foundation, priority 0001, published 2024)
